These results are taken from patent publication US6645960B1, “Antifungal sordaricin derivatives” (Glaxo Wellcome S.A., priority 1999, dated 2003).

The test system of one test is Candida albicans 4711. Nature of the test: standard in vitro screen, minimum inhibiting concentration (MIC) by two-fold serial dilution, in the presence or absence of mouse serum. The format is cell-based. The note with it: for MIC C.albicans4711: absence of mouse serum; for MIC 50%serum C.albicans4711: presence of 50% mouse serum. As to the method: The in vitro evaluation of the anti-fungal activity of compounds of the invention was performed on liquid or solid medium by the anti-fungal two-fold serial dilution technique of determining the minimum inhibitory concentration (MIC) of anti-fungal agent that inhibited development of growth after 24 to 48 hours of incubation at 37° C. For example a series of agar plates or broth microdilution panels containing two-fold dilutions of anti-fungal agent were inoculated with a standard culture of a clinically relevant pathogen, in the presence and absence of activated or inactivated serum. The agar plates or broth microdilution panels were then examined for the presence or absence of growth of the fungus and the appropriate MIC values determined. […] Compounds of formula (I) have been tested for antifungal activity in a standard in vitro screen and the minimum inhibiting concentration (MIC;μg/ml) determined for each compound against a relevant strain of Candida albicans in the presence or absence of mouse serum.

The subject of test [1] is battery of fungal organisms. As to conditions: tested against a battery of fungal organisms; cited from earlier work.

Turning to `C=CCN1C[C@H](OC[C@@]23C[C@@H]4[C@H](C)CC[C@H]4[C@@]4(C=O)C[C@@H]2C=C(C(C)C)[C@@]34C(=O)OC(C)OC(=O)OCC)O[C@H](C)C1.Cl` (single isomer, unassigned) [Example 2], in the test with Candida albicans 4711 (hydrochloride), the “MIC C.albicans4711” value came out at 8 µg/mL and the “MIC 50%serum C.albicans4711” value is 0.12 µg/mL.
Taken in the same sequence, the figures for `C=CCN1C[C@H](OC[C@@]23C[C@@H]4[C@H](C)CC[C@H]4[C@@]4(C=O)C[C@@H]2C=C(C(C)C)[C@@]34C(=O)OC(C)OC(=O)OCC)O[C@H](C)C1.Cl` (single isomer, unassigned) [Example 3] were 62 µg/mL and 0.06 µg/mL.
On to `CO[C@H]1[C@@H](O)[C@H](O)[C@H](OC[C@@]23C[C@@H]4[C@H](C)CC[C@H]4[C@@]4(C=O)CC2C=C(C(C)C)[C@@]34C(=O)O)O[C@@H]1C` [sordarin], for which, in test [1], the antifungal activity entry is recorded as “only moderately active”.
With `C/C=C/C=C\C(=O)O[C@H]1[C@H](O)[C@H](OCC23C[C@@H]4[C@H](C)CC[C@H]4C4(C=O)CC2C=C(C(C)C)C34C(=O)O)O[C@H](C)[C@H]1OC` (stereo partly drawn) [zofimarin], the antifungal activity entry in test [1] is recorded as “only moderately active”.
Regarding “[[1R-(1α,3aβ,4β,4aβ,7β,7aα,8aβ)]8a-[(2R,6R)-(4-allyl-6-methyl-morpholin-2-yl)-oxymethyl]-4-formyl-4,4a,5,6,7,7a,8,8a-octahydro-7-methyl-3-(1-methylethyl)-1,4-methano-s-indacene-3a(1H)-carboxylic acid, phthalidyl ester hydrochloride [Example 4]”, the “MIC 50%serum C.albicans4711” value with Candida albicans 4711 came out at 0.25 µg/mL.
For the compound “[[1R-(1α,3aβ,4β,4aβ,7β,7aα,8aβ)]8a-[(2R,6R)-(4-allyl-6-methyl-morpholin-2-yl)-oxymethyl]-4-formyl-4,4a,5,6,7,7a,8,8a-octahydro-7-methyl-3-(1-methylethyl)-1,4-methano-s-indacene-3a(1H)-carboxylic acid, pivaloyloxymethyl ester hydrochloride [Example 5]”, in the test with Candida albicans 4711, the “MIC C.albicans4711” value was >125 µg/mL and the “MIC 50%serum C.albicans4711” value was determined as 0.05 µg/mL.
